{
  "source": "ChEMBL document CHEMBL3885881",
  "about": "“DrugMatrix”",
  "organism": "Rattus norvegicus",
  "assay": "DrugMatrix - Regimen: Daily Repeat",
  "type": "toxicity, organism-based, Sprague-Dawley",
  "parameters": "regimen Daily Repeat, gender Male, age 6-8 weeks",
  "conditions": "in vivo, po, 0 mg/kg, route oral GAVAGE, dose level Control, vehicle .5 % CMC; for BASOPHIL / EOSINOPHIL / ERYTHROCYTE COUNT / HEMATOCRIT / HEMOGLOBIN / LEUKOCYTE COUNT / LYMPHOCYTE / MEAN CORPUSCULAR HEMOGLOBIN / MEAN CORPUSCULAR HEMOGLOBIN CONCENTRATION / MEAN CORPUSCULAR VOLUME / MONOCYTE / NEUTROPHIL / PLATELET COUNT: tissue Blood; for ALANINE AMINOTRANSFERASE / ALBUMIN / ALKALINE PHOSPHATASE / ASPARTATE AMINOTRANSFERASE / BLOOD UREA NITROGEN / CHLORIDE / CHOLESTEROL / CREATINE PHOSPHOKINASE / CREATININE / GLUCOSE / PHOSPHORUS / POTASSIUM / SODIUM / TOTAL BILIRUBIN / TOTAL PROTEIN: tissue Plasma",
  "data": [
    {"smiles": "Clc1ccccc1CN1CCc2sccc2C1", "note": "[TICLOPIDINE]", "values": [
      {"measurement": "BASOPHIL", "setting": "72 h, time 3 day", "value": 0, "unit": "%"},
      {"measurement": "EOSINOPHIL", "setting": "72 h, time 3 day", "value": 0, "unit": "%"},
      {"measurement": "ERYTHROCYTE COUNT", "setting": "72 h, time 3 day", "value": 6.19, "unit": "x10E6/uL"},
      {"measurement": "HEMATOCRIT", "setting": "72 h, time 3 day", "value": 36.94, "unit": "%"},
      {"measurement": "HEMOGLOBIN", "setting": "72 h, time 3 day", "value": 14.58, "unit": "G/DL"},
      {"measurement": "LEUKOCYTE COUNT", "setting": "72 h, time 3 day", "value": 11.54, "unit": "x10E3/uL"},
      {"measurement": "LYMPHOCYTE", "setting": "72 h, time 3 day", "value": 84.8, "unit": "%"},
      {"measurement": "MEAN CORPUSCULAR HEMOGLOBIN", "setting": "72 h, time 3 day", "value": 23.58, "unit": "pg"},
      {"measurement": "MEAN CORPUSCULAR HEMOGLOBIN CONCENTRATION", "setting": "72 h, time 3 day", "value": 39.44, "unit": "G/DL"},
      {"measurement": "MEAN CORPUSCULAR VOLUME", "setting": "72 h, time 3 day", "value": 59.76, "unit": "fL"},
      {"measurement": "MONOCYTE", "setting": "72 h, time 3 day", "value": 1.4, "unit": "%"},
      {"measurement": "NEUTROPHIL", "setting": "72 h, time 3 day", "value": 13.8, "unit": "%"},
      {"measurement": "PLATELET COUNT", "setting": "72 h, time 3 day", "value": 1068.8, "unit": "x10E3/uL"},
      {"measurement": "ALANINE AMINOTRANSFERASE", "setting": "72 h, time 3 day", "value": 38.17, "unit": "u/L"},
      {"measurement": "ALBUMIN", "setting": "72 h, time 3 day", "value": 3.88, "unit": "G/DL"},
      {"measurement": "ALKALINE PHOSPHATASE", "setting": "72 h, time 3 day", "value": 391.33, "unit": "u/L"},
      {"measurement": "ASPARTATE AMINOTRANSFERASE", "setting": "72 h, time 3 day", "value": 69.83, "unit": "u/L"},
      {"measurement": "BLOOD UREA NITROGEN", "setting": "72 h, time 3 day", "value": 15, "unit": "mg/dL"},
      {"measurement": "CHLORIDE", "setting": "72 h, time 3 day", "value": 104.17, "unit": "MEQ/L"},
      {"measurement": "CHOLESTEROL", "setting": "72 h, time 3 day", "value": 72.17, "unit": "mg/dL"},
      {"measurement": "CREATINE PHOSPHOKINASE", "setting": "72 h, time 3 day", "value": 174.33, "unit": "u/L"},
      {"measurement": "CREATININE", "setting": "72 h, time 3 day", "value": 0.58, "unit": "mg/dL"},
      {"measurement": "GLUCOSE", "setting": "72 h, time 3 day", "value": 192.67, "unit": "mg/dL"},
      {"measurement": "PHOSPHORUS", "setting": "72 h, time 3 day", "value": 10.52, "unit": "mg/dL"},
      {"measurement": "POTASSIUM", "setting": "72 h, time 3 day", "value": 6.8, "unit": "MEQ/L"},
      {"measurement": "SODIUM", "setting": "72 h, time 3 day", "value": 149.67, "unit": "MEQ/L"},
      {"measurement": "TOTAL BILIRUBIN", "setting": "72 h, time 3 day", "value": 0.78, "unit": "mg/dL"},
      {"measurement": "TOTAL PROTEIN", "setting": "72 h, time 3 day", "value": 6.28, "unit": "G/DL"},
      {"measurement": "BASOPHIL", "setting": "120 h, time 5 day", "value": 0, "unit": "%"},
      {"measurement": "EOSINOPHIL", "setting": "120 h, time 5 day", "value": 0.17, "unit": "%"},
      {"measurement": "ERYTHROCYTE COUNT", "setting": "120 h, time 5 day", "value": 6.72, "unit": "x10E6/uL"},
      {"measurement": "HEMATOCRIT", "setting": "120 h, time 5 day", "value": 40.02, "unit": "%"},
      {"measurement": "HEMOGLOBIN", "setting": "120 h, time 5 day", "value": 15.83, "unit": "G/DL"},
      {"measurement": "LEUKOCYTE COUNT", "setting": "120 h, time 5 day", "value": 9.5, "unit": "x10E3/uL"},
      {"measurement": "LYMPHOCYTE", "setting": "120 h, time 5 day", "value": 87.17, "unit": "%"},
      {"measurement": "MEAN CORPUSCULAR HEMOGLOBIN", "setting": "120 h, time 5 day", "value": 23.57, "unit": "pg"},
      {"measurement": "MEAN CORPUSCULAR HEMOGLOBIN CONCENTRATION", "setting": "120 h, time 5 day", "value": 39.62, "unit": "G/DL"},
      {"measurement": "MEAN CORPUSCULAR VOLUME", "setting": "120 h, time 5 day", "value": 59.55, "unit": "fL"},
      {"measurement": "MONOCYTE", "setting": "120 h, time 5 day", "value": 1.67, "unit": "%"},
      {"measurement": "NEUTROPHIL", "setting": "120 h, time 5 day", "value": 11, "unit": "%"},
      {"measurement": "PLATELET COUNT", "setting": "120 h, time 5 day", "value": 1053.67, "unit": "x10E3/uL"},
      {"measurement": "ALANINE AMINOTRANSFERASE", "setting": "120 h, time 5 day", "value": 26.33, "unit": "u/L"},
      {"measurement": "ALBUMIN", "setting": "120 h, time 5 day", "value": 4.02, "unit": "G/DL"},
      {"measurement": "ALKALINE PHOSPHATASE", "setting": "120 h, time 5 day", "value": 316.67, "unit": "u/L"},
      {"measurement": "ASPARTATE AMINOTRANSFERASE", "setting": "120 h, time 5 day", "value": 61.33, "unit": "u/L"},
      {"measurement": "BLOOD UREA NITROGEN", "setting": "120 h, time 5 day", "value": 18.67, "unit": "mg/dL"},
      {"measurement": "CHLORIDE", "setting": "120 h, time 5 day", "value": 108, "unit": "MEQ/L"},
      {"measurement": "CHOLESTEROL", "setting": "120 h, time 5 day", "value": 65.17, "unit": "mg/dL"},
      {"measurement": "CREATINE PHOSPHOKINASE", "setting": "120 h, time 5 day", "value": 161.17, "unit": "u/L"},
      {"measurement": "CREATININE", "setting": "120 h, time 5 day", "value": 0.75, "unit": "mg/dL"},
      {"measurement": "GLUCOSE", "setting": "120 h, time 5 day", "value": 177.33, "unit": "mg/dL"},
      {"measurement": "PHOSPHORUS", "setting": "120 h, time 5 day", "value": 9.72, "unit": "mg/dL"},
      {"measurement": "POTASSIUM", "setting": "120 h, time 5 day", "value": 6.18, "unit": "MEQ/L"},
      {"measurement": "SODIUM", "setting": "120 h, time 5 day", "value": 150.5, "unit": "MEQ/L"},
      {"measurement": "TOTAL BILIRUBIN", "setting": "120 h, time 5 day", "value": 0.68, "unit": "mg/dL"},
      {"measurement": "TOTAL PROTEIN", "setting": "120 h, time 5 day", "value": 6.55, "unit": "G/DL"}
    ]}
  ]
}
